From ChEMBL document CHEMBL4483862, “Open-source discovery of chemical leads for next-generation chemoprotective antimalarials” (2018)

Test system: Plasmodium berghei
Assay: Luciferase/luciferin-expressing antifolate-resistant parasites were used to infect a culture of HepG2 cells that were pre-incubated with compounds. Infected hepatocytes emit light due to the luciferase reaction. Assay results are presented as the percent inhibition of light emission compared to control. […]
Type: functional
Conditions: sporozoite; for IC90: read-out: LUCIFERASE INFECTION ASSAY - IC90
[1] = read-out: LUCIFERASE INFECTION ASSAY - IC50

## COc1ccc(NCC2(c3ccnc(-c4ccccc4Cl)c3)CC2)cc1
HEPG2TOX_HILL_SLOPE 7.95, HEPG2TOX_R_SQUARED 0.722, PBLUC_HILL_SLOPE 6.14, PBLUC_R_SQUARED 0.58, read-out: LUCIFERASE INFECTION ASSAY - IC50
  IC50: 6.01 µM
  IC90: 8.59 µM

## Cc1cnc(NC(=O)c2ccc(C3SCCS3)cc2)s1
[1]
  IC50: 0.273 µM
  IC90: > 10 µM

## O=[N+]([O-])c1ccccc1NC(=S)N/N=C/c1ccc(O)c(O)c1
FFLUC_HILL_SLOPE 1.09, FFLUC_R_SQUARED 0.362, HEPG2TOX_HILL_SLOPE 7.32, HEPG2TOX_R_SQUARED 0.0511, PBLUC_HILL_SLOPE 3.36, PBLUC_R_SQUARED 0.569, read-out: LUCIFERASE INFECTION ASSAY - IC50
  IC50: 4.39 µM
  IC90: 8.44 µM

## C=CCOc1cccc(C(=O)N(C)Cc2nc(-c3ccc(Cl)cc3)no2)c1
[1]
  IC50: > 8.6 µM
  IC90: > 8.6 µM

## c1ccc(-n2ncc3c(N4CCCC4c4ccc5c(c4)OCCO5)ncnc32)cc1 (configuration not stated)
HEPG2TOX_HILL_SLOPE 2.6, HEPG2TOX_R_SQUARED 0.193, PBLUC_HILL_SLOPE 3.44, PBLUC_R_SQUARED 0.735, read-out: LUCIFERASE INFECTION ASSAY - IC50
  IC50: 7.29 µM
  IC90: > 10 µM

## CNC(=O)c1ccc(CN(C2CC2)S(=O)(=O)c2ccc(C)c(C)c2)cc1
PBLUC_HILL_SLOPE 3.66, PBLUC_R_SQUARED 0.689, read-out: LUCIFERASE INFECTION ASSAY - IC50
  IC50: 5.91 µM
  IC90: > 10 µM

## CCOC(=O)c1sc2ncnc(NCCC(O)(c3ccc(C)o3)C(F)(F)F)c2c1C (configuration not stated)
HEPG2TOX_HILL_SLOPE 2.98, HEPG2TOX_R_SQUARED 0.521, PBLUC_HILL_SLOPE 13.8, PBLUC_R_SQUARED 0.46, read-out: LUCIFERASE INFECTION ASSAY - IC50
  IC50: 3.14 µM
  IC90: 3.68 µM

## O=C(Nc1cccc2c[nH]nc12)c1cn(-c2ccccc2Br)nn1
[1]
  IC50: > 10 µM
  IC90: > 10 µM

## Cc1ccc(C(C)CCN2CCc3c(c(C(=O)NCc4nccs4)nn3Cc3ccccc3)C2)o1 (configuration not stated)
[1]
  IC50: > 6.74 µM
  IC90: > 6.74 µM

## CC1CCC(C(C)C)C(OC(=O)C[n+]2cn(C)c3ccccc32)C1 (configuration not stated)
HEPG2TOX_HILL_SLOPE 2.1, HEPG2TOX_R_SQUARED 0.908, PBLUC_HILL_SLOPE 16.2, PBLUC_R_SQUARED 0.404, read-out: LUCIFERASE INFECTION ASSAY - IC50
  IC50: 3.31 µM
  IC90: 3.79 µM

## Clc1ccc(CNc2ncc3c(n2)CCN(Cc2ccccc2)C3)cc1Cl
[1]
  IC50: > 8.26 µM
  IC90: > 8.26 µM

## Cc1oc2[nH]cnc(=O)c2c1C(=O)Nc1ccccc1Cc1ccccc1
FFLUC_HILL_SLOPE 0.892, FFLUC_R_SQUARED 0.572, PBLUC_HILL_SLOPE 0.52, PBLUC_R_SQUARED 0.732, read-out: LUCIFERASE INFECTION ASSAY - IC50
  IC50: 2.73 µM
  IC90: > 10 µM

## CCc1ccc(C2=NNC(=Nc3ccccc3F)SC2)s1
[1]
  IC50: > 10 µM
  IC90: > 10 µM

## CN(CC(=O)Nc1ccc(Cl)c(S(=O)(=O)N2CCOCC2)c1)C(=O)C1CCCO1 (configuration not stated)
[1]
  IC50: > 10 µM
  IC90: > 10 µM

## CC(=O)Nc1cccc(-c2cnc3ccc(-c4cccs4)nn23)c1
HEPG2TOX_HILL_SLOPE 0.814, HEPG2TOX_R_SQUARED 0.982, PBLUC_HILL_SLOPE 1.1, PBLUC_R_SQUARED 0.75, read-out: LUCIFERASE INFECTION ASSAY - IC50
  IC50: 0.461 µM
  IC90: 3.37 µM

## Brc1ccc(OCc2ccccc2)c(CNCc2ccccn2)c1
PBLUC_HILL_SLOPE 4.81, PBLUC_R_SQUARED 0.436, read-out: LUCIFERASE INFECTION ASSAY - IC50
  IC50: 4.39 µM
  IC90: 6.94 µM

## COc1cc(/C=C/C(=O)c2ccc(Cl)c([N+](=O)[O-])c2)ccc1OC(F)F
[1]
  IC50: > 10 µM
  IC90: > 10 µM

## CCOC(=O)c1c(C)nn(-c2ccc(N3C(=O)C=CC3=O)cc2)c1C
PBLUC_HILL_SLOPE 1.49, PBLUC_R_SQUARED 0.186, read-out: LUCIFERASE INFECTION ASSAY - IC50
  IC50: 6.99 µM
  IC90: > 9.72 µM

## CCc1c(C)sc2nc(SCc3nc4ccccc4s3)n(-c3ccc(O)cc3C)c(=O)c12
[1]
  IC50: > 10 µM
  IC90: > 10 µM

## CCOC(=O)c1c(S(=O)(=O)Nc2ccccc2Cl)c(-c2ccccc2)n(-c2ccccc2)c1C
[1]
  IC50: > 6.67 µM
  IC90: > 6.67 µM

## COc1ccc(Nc2nc(NCCO)c3ccccc3n2)cc1
[1]
  IC50: > 10 µM
  IC90: > 10 µM

## COc1cc2ccccc2cc1C(=O)OC(C(=O)Nc1ccc(C)c(Cl)c1)c1ccccc1 (configuration not stated)
FFLUC_HILL_SLOPE 12, FFLUC_R_SQUARED 0.255, PBLUC_HILL_SLOPE 12.6, PBLUC_R_SQUARED 0.137, read-out: LUCIFERASE INFECTION ASSAY - IC50
  IC50: > 10 µM
  IC90: > 10 µM

## COc1ccc(C2CC(=O)c3cnn(-c4nc(C)cc(C)n4)c3C2)cc1 (configuration not stated)
PBLUC_HILL_SLOPE 4.21, PBLUC_R_SQUARED 0.368, read-out: LUCIFERASE INFECTION ASSAY - IC50
  IC50: 2.91 µM
  IC90: 4.91 µM

## Cc1n[nH]c(Nc2ccc(Oc3ccccc3)cc2)nc1=O
[1]
  IC50: > 11.2 µM
  IC90: > 11.2 µM

## CC1CCCC(N=C2NN=C(c3c[nH]c(C(=O)N4CCCC4)c3)CS2)C1C (configuration not stated)
HEPG2TOX_HILL_SLOPE 0.0793, HEPG2TOX_R_SQUARED 0.0179, read-out: LUCIFERASE INFECTION ASSAY - IC50
  IC50: > 10 µM
  IC90: > 10 µM

## COc1ccc2c(c1)CC/C(=C\c1ccc(C(C)C)cc1)C2=O
[1]
  IC50: > 10.8 µM
  IC90: > 10.8 µM

## COc1cc(OC)cc(-c2cn3c(-c4cccc(N(C)C)c4)cnc3cn2)c1
PBLUC_HILL_SLOPE 11.4, PBLUC_R_SQUARED 0.677, read-out: LUCIFERASE INFECTION ASSAY - IC50
  IC50: 7.8 µM
  IC90: > 8.81 µM

## CN(c1ccccc1)S(=O)(=O)c1cc(C(=O)c2nnc(-c3ccc(Cl)cc3)o2)ccc1Cl
[1]
  IC50: > 10 µM
  IC90: > 10 µM

## C=C(C)C1CC=C(C)/C(=N\NC(=O)C(=O)N/N=C2/CC(C(=C)C)CC=C2C)C1 (configuration not stated)
[1]
  IC50: > 10 µM
  IC90: > 10 µM

## c1cncc(-c2ccc3ncc(-c4cccnc4)n3n2)c1
HEPG2TOX_HILL_SLOPE 1.17, HEPG2TOX_R_SQUARED 0.949, PBLUC_HILL_SLOPE 1.66, PBLUC_R_SQUARED 0.633, read-out: LUCIFERASE INFECTION ASSAY - IC50
  IC50: 0.778 µM
  IC90: 2.92 µM

## O=C(NCC#Cc1ccccc1)c1cccc2cccnc12
[1]
  IC50: > 10 µM
  IC90: > 10 µM

## O=C(NCCCn1ccc2ccccc21)Nc1ccc(Cl)c(Cl)c1
[1]
  IC50: > 10 µM
  IC90: > 10 µM

## CC(C)(C)c1cc(NC(=O)CSc2ccc(Cl)cc2)c(C(N)=O)s1
FFLUC_HILL_SLOPE 13.8, FFLUC_R_SQUARED 0.177, HEPG2TOX_HILL_SLOPE 8.22, HEPG2TOX_R_SQUARED 0.725, read-out: LUCIFERASE INFECTION ASSAY - IC50
  IC50: > 8.62 µM
  IC90: > 8.62 µM

## Cc1c(C(=O)Nc2ccccc2O)cnn1-c1cccc(C(F)(F)F)c1
PBLUC_HILL_SLOPE 22.3, PBLUC_R_SQUARED 0.482, read-out: LUCIFERASE INFECTION ASSAY - IC50
  IC50: 3.29 µM
  IC90: 3.64 µM

## Cc1cc(-n2c(C)cc(C(=O)COc3ccccc3C#N)c2C)no1
PBLUC_HILL_SLOPE 4.77, PBLUC_R_SQUARED 0.224, read-out: LUCIFERASE INFECTION ASSAY - IC50
  IC50: 7.56 µM
  IC90: > 10 µM

## COc1ccc(C(=O)Nc2cc(Cl)ccc2N2CCCCC2)cc1S(=O)(=O)N(C)OC
FFLUC_HILL_SLOPE 10.9, FFLUC_R_SQUARED 0.3, PBLUC_HILL_SLOPE 12.4, PBLUC_R_SQUARED 0.0122, read-out: LUCIFERASE INFECTION ASSAY - IC50
  IC50: > 10 µM
  IC90: > 10 µM

## CC(=O)Oc1ccc(-c2ccc(C(=O)OCC(=O)Nc3sccc3C(N)=O)cc2)cc1
HEPG2TOX_HILL_SLOPE 11.3, HEPG2TOX_R_SQUARED 0.976, PBLUC_HILL_SLOPE 2.77, PBLUC_R_SQUARED 0.661, read-out: LUCIFERASE INFECTION ASSAY - IC50
  IC50: 5.01 µM
  IC90: > 10 µM

## NC(=O)C1CCN(c2nc(-c3cccs3)nc3sc4c(c23)CCCC4)CC1
[1]
  IC50: > 10 µM
  IC90: > 10 µM

## Cc1cc(-c2cc(C(=O)NCCN3CCOCC3)c3cnn(C(C)C)c3n2)c(C)s1
[1]
  IC50: > 10 µM
  IC90: > 10 µM

## COc1cc(OC)cc(-c2cnc3cnc(-c4ccc(CO)cc4)cn23)c1
HEPG2TOX_HILL_SLOPE 5.84, HEPG2TOX_R_SQUARED 0.257, PBLUC_HILL_SLOPE 9, PBLUC_R_SQUARED 0.405, read-out: LUCIFERASE INFECTION ASSAY - IC50
  IC50: 7.72 µM
  IC90: > 9.13 µM

## O=c1cc(CSc2nc3ccccc3s2)[nH]c2nc3ccccc3n12
PBLUC_HILL_SLOPE 13.4, PBLUC_R_SQUARED 0.218, read-out: LUCIFERASE INFECTION ASSAY - IC50
  IC50: 2.97 µM
  IC90: 3.5 µM

## COc1ccc(-c2[nH]c3ccc(F)cc3c2CCC(=O)NCc2nnc3ccccn23)cc1
PBLUC_HILL_SLOPE 1.44, 1.44, PBLUC_R_SQUARED 0.412, 0.538, read-out: LUCIFERASE INFECTION ASSAY - IC50
  IC50: 5.36 µM
  IC90: > 10 µM

## O=C(NCCO)c1cccc(-c2ccc3ncc(-c4cccc(O)c4)n3n2)c1
HEPG2TOX_HILL_SLOPE 14.1, HEPG2TOX_R_SQUARED 0.658, PBLUC_HILL_SLOPE 25.2, PBLUC_R_SQUARED 0.24, read-out: LUCIFERASE INFECTION ASSAY - IC50
  IC50: 8.83 µM
  IC90: 9.64 µM

## CSc1nnnn1-c1cccc(NC(=O)c2cc(-c3cccs3)nc3c2cnn3C(C)C)c1
PBLUC_HILL_SLOPE 6.42, PBLUC_R_SQUARED 0.137, read-out: LUCIFERASE INFECTION ASSAY - IC50
  IC50: > 10 µM
  IC90: > 10 µM

## CNc1nc2cnc(Nc3cccc(N(C)C)c3)cc2n1-c1ccccc1
[1]
  IC50: > 10 µM
  IC90: > 10 µM

## COCCn1c(C(=O)OC)c(NC(=O)c2ccco2)c2cc(NC(C)Cc3ccc(C)cc3)cnc21 (configuration not stated)
[1]
  IC50: 3.69 µM
  IC90: > 6.73 µM
